System: 873145-292-R-J1-PDC complex spheroid viability
Test: Anticancer human tumor 873145-292-R-J1-PDC patient-derived renal clear cell carcinoma cell line growth inhibition [POLQ]
Conditions: for IC50: curve of first compound; for viability, T/C: stronger effect = lower value
Method: Multicellular complex tumor spheroid response to Polymerase (POL) inhibitors (novobiocin, ART-558, RP6685) in combination with a variety of drugs and investigational agents in selected tumor cell lines
The POL inhibitors (novobiocin, ART-558, and RP6685) were evaluated both individually and in combination with standard of care and investigational anticancer small molecules within a complex spheroid model of solid tumors. . Complex spheroids include a stromal component modeled by human endothelial cells (HUVEC) and fibroblasts modeled by human mesenchymal stem cells (MSCs). The concentration ranges selected for each drug and investigational agent were based upon clinically achievable concentrations if the clinical Cmax of the agent was known.
Compounds. The drugs and investigational agents: novobiocin (NSC847541), ART-558 (NSC835418), RP-6685 (NSC848927), peposertib (NSC802822), ceralasertib (NSC780249), elimusertib (NSC800525), camonsertib (NSC841442), AZD-1390 (NSC803789), olaparib (NSC753686), talazoparib (NSC767125), rucaparib (NSC756644), sotorasib (NSC818433), MRTX-1133 (NSC836407), SN-38 (NSC673596), topotecan (NSC609699), epotoside (NSC141540), doxorubicin (NSC123127), gemcitabine (NSC613327), 5-fluorouracil (NSC19893), paclitaxel (NSC125973), vemurafenib (NSC761431), MSA-2 (NSC828583), SN-011 (NSC837082), adavosertib (NSC754352), prexasertib (NSC758257), carboplatin (NSC241240) and oxaliplatin (NSC266046), were obtained from the National Cancer Institute (NCI) Developmental Therapeutics Program Chemical Repository (21). The FDA-approved anticancer drug set is available from the Developmental Therapeutics Program at https://dtp.cancer.gov/organization/dscb/obtaining/. […] The stock solutions were prepared in dimethyl sulfoxide (DMSO, Sigma-Aldrich, St. Louis, MO, cat. D2650), except for the platinum compounds which were prepared in saline (Quality Biological, Gaithersburg, MD, cat. 114-055-101), at 800-fold the tested concentration and stored at -70 degrees C prior to their use. All drugs and investigational agents were tested over a range starting from a high concentration at or near the clinical Cmax and decreasing in half-log increments. If the clinical Cmax for an agent had not been determined, the highest concentration tested was 10 microM, except for SN-38, which was tested at a high concentration of 1 microM.
Cell Culture. All cells were maintained in an incubator at 37 degrees C and 5% CO2 with 95% humidity. The PDC lines were cultured according to standard operating procedures established by the NCI PDMR (https://pdmr.cancer.gov). Table 3 of the manuscript, lists the cell lines along with the number of the three cell types plated to form the mct-spheroids and media for tumor cell growth. After thawing, all PDC lines, except 997537-175-T-J1-PDC and 415267-285-R-J2-PDC, were cultured in Matrigel-coated flasks prepared with a working solution of 1X Ham's F-12 nutrient mix, without supplementation (Thermo Fisher Scientific, cat. 11765054), 100 U/mL penicillin-streptomycin (Thermo Fisher Scientific, cat. 15140122), and 2.5% Matrigel (Corning Inc., Corning, NY, cat. 354248) for the first three passages. The two PDC lines 997537-175-T-J1-PDC and 415267-285-R-J2-PDC were cultured on uncoated flasks. The 857933-349-R-J2-PDC line was cultured in 6C/Colon 1B media containing advanced DMEM/F-12 (Thermo Fisher Scientific, cat. 12634028), 10 mM HEPES (Thermo Fisher Scientific, cat. 15630080), 1X GlutaMAX supplement (Thermo Fisher Scientific, cat. 35050061), 0.1 mg/mL primocin (InvivoGen, San Diego, CA, cat. ant-pm-2), 10% defined fetal bovine serum, heat inactivated (HyClone Laboratories Inc., Logan, UT, cat. SH30070.03HI), 50% L-WRN conditioned media (ATCC, cat. CRL-3276), 1.25 mM N-Acetyl-L-cysteine (Sigma-Aldrich, cat. A9165), 10 mM nicotinamide (Sigma-Aldrich, cat. N0636), 1X B-27 supplement (Thermo Fisher Scientific, cat. 17504044), 1X N-2 supplement (Thermo Fisher Scientific, cat. […]

[1] = second compound 0.0316 µM, first compound 0.0316 µM
[2] = second compound 0.0316 µM, first compound 0.1 µM
[3] = second compound 0.1 µM, first compound 0.0316 µM
[4] = second compound 0.1 µM, first compound 0.1 µM
[5] = second compound 0.316 µM, first compound 0.0316 µM
[6] = second compound 0.316 µM, first compound 0.1 µM
[7] = second compound 1 µM, first compound 0.0316 µM
[8] = second compound 1 µM, first compound 0.1 µM
[9] = second compound 3.16 µM, first compound 0.0316 µM
[10] = second compound 3.16 µM, first compound 0.1 µM
[11] = second compound 10 µM, first compound 0.0316 µM
[12] = second compound 10 µM, first compound 0.1 µM
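Also: spheroids exposed to compounds for 7 days before viability readout.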
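For viability, T/C in this document: luminescence signal used as surrogate for viable cell content; 100% = DMSO vehicle control viability.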

## CC[C@@]1(O)C(=O)OCc2c1cc1n(c2=O)Cc2cc3c(CN(C)C)c(O)ccc3nc2-1 + COC1C(OC(N)=O)C(O)C(Oc2ccc3c(O)c(NC(=O)c4ccc(O)c(CC=C(C)C)c4)c(=O)oc3c2C)OC1(C)C
Second compound 0.0316 µM
  IC50: 94.4 nM
Second compound 0.1 µM
  IC50: > 100 nM
Second compound 0.316 µM
  IC50: > 100 nM
Second compound 1 µM
  IC50: 91.9 nM
Second compound 3.16 µM
  IC50: 95.5 nM
Second compound 10 µM
  IC50: > 100 nM
Second compound 0.0316 µM, first compound 0.000316 µM
  viability, T/C: 100%
Second compound 0.0316 µM, first compound 0.001 µM
  viability, T/C: 98.3%
Second compound 0.0316 µM, first compound 0.00316 µM
  viability, T/C: 96.2%
Second compound 0.0316 µM, first compound 0.01 µM
  viability, T/C: 90%
[1]
  viability, T/C: 91.5%
[2]
  viability, T/C: 47.6%
Second compound 0.1 µM, first compound 0.000316 µM
  viability, T/C: 112%
Second compound 0.1 µM, first compound 0.001 µM
  viability, T/C: 97.6%
Second compound 0.1 µM, first compound 0.00316 µM
  viability, T/C: 90.8%
Second compound 0.1 µM, first compound 0.01 µM
  viability, T/C: 96.3%
[3]
  viability, T/C: 80.6%
[4]
  viability, T/C: 48.9%
Second compound 0.316 µM, first compound 0.000316 µM
  viability, T/C: 104%
Second compound 0.316 µM, first compound 0.001 µM
  viability, T/C: 89.3%
Second compound 0.316 µM, first compound 0.00316 µM
  viability, T/C: 92.9%
Second compound 0.316 µM, first compound 0.01 µM
  viability, T/C: 110%
[5]
  viability, T/C: 81.5%
[6]
  viability, T/C: 53.9%
Second compound 1 µM, first compound 0.000316 µM
  viability, T/C: 98.4%
Second compound 1 µM, first compound 0.001 µM
  viability, T/C: 95.3%
Second compound 1 µM, first compound 0.00316 µM
  viability, T/C: 92.8%
Second compound 1 µM, first compound 0.01 µM
  viability, T/C: 91%
[7]
  viability, T/C: 80.3%
[8]
  viability, T/C: 47.3%
Second compound 3.16 µM, first compound 0.000316 µM
  viability, T/C: 101%
Second compound 3.16 µM, first compound 0.001 µM
  viability, T/C: 97.8%
Second compound 3.16 µM, first compound 0.00316 µM
  viability, T/C: 92.7%
Second compound 3.16 µM, first compound 0.01 µM
  viability, T/C: 90.9%
[9]
  viability, T/C: 75.1%
[10]
  viability, T/C: 48.6%
Second compound 10 µM, first compound 0.000316 µM
  viability, T/C: 104%
Second compound 10 µM, first compound 0.001 µM
  viability, T/C: 100%
Second compound 10 µM, first compound 0.00316 µM
  viability, T/C: 91.7%
Second compound 10 µM, first compound 0.01 µM
  viability, T/C: 98.6%
[11]
  viability, T/C: 71.8%
[12]
  viability, T/C: 50.7%

## Nc1ccn(C2OC(CO)C(O)C2(F)F)c(=O)n1 (centres undefined) + COC1C(OC(N)=O)C(O)C(Oc2ccc3c(O)c(NC(=O)c4ccc(O)c(CC=C(C)C)c4)c(=O)oc3c2C)OC1(C)C
Second compound 0.0316 µM
  IC50: > 10000 nM
Second compound 0.1 µM
  IC50: 1090 nM
Second compound 0.316 µM
  IC50: 243 nM
Second compound 1 µM
  IC50: 1280 nM
Second compound 3.16 µM
  IC50: 360 nM
Second compound 10 µM
  IC50: > 10000 nM
[1]
  viability, T/C: 59.6%
[2]
  viability, T/C: 46.6%
Second compound 0.0316 µM, first compound 0.316 µM
  viability, T/C: 52.2%
Second compound 0.0316 µM, first compound 1 µM
  viability, T/C: 46.5%
Second compound 0.0316 µM, first compound 3.16 µM
  viability, T/C: 54.8%
Second compound 0.0316 µM, first compound 10 µM
  viability, T/C: 50.9%
[3]
  viability, T/C: 51.2%
[4]
  viability, T/C: 57.5%
Second compound 0.1 µM, first compound 0.316 µM
  viability, T/C: 53.7%
Second compound 0.1 µM, first compound 1 µM
  viability, T/C: 44.2%
Second compound 0.1 µM, first compound 3.16 µM
  viability, T/C: 51%
Second compound 0.1 µM, first compound 10 µM
  viability, T/C: 43.5%
[5]
  viability, T/C: 60.8%
[6]
  viability, T/C: 52.9%
Second compound 0.316 µM, first compound 0.316 µM
  viability, T/C: 47.8%
Second compound 0.316 µM, first compound 1 µM
  viability, T/C: 48.3%
Second compound 0.316 µM, first compound 3.16 µM
  viability, T/C: 51.4%
Second compound 0.316 µM, first compound 10 µM
  viability, T/C: 46%
[7]
  viability, T/C: 57.8%
[8]
  viability, T/C: 54.8%
Second compound 1 µM, first compound 0.316 µM
  viability, T/C: 52.7%
Second compound 1 µM, first compound 1 µM
  viability, T/C: 48.8%
Second compound 1 µM, first compound 3.16 µM
  viability, T/C: 49.6%
Second compound 1 µM, first compound 10 µM
  viability, T/C: 48.4%
[9]
  viability, T/C: 61.7%
[10]
  viability, T/C: 60.2%
Second compound 3.16 µM, first compound 0.316 µM
  viability, T/C: 50.3%
Second compound 3.16 µM, first compound 1 µM
  viability, T/C: 43.6%
Second compound 3.16 µM, first compound 3.16 µM
  viability, T/C: 50.7%
Second compound 3.16 µM, first compound 10 µM
  viability, T/C: 52.5%
[11]
  viability, T/C: 59.2%
[12]
  viability, T/C: 52.4%
Second compound 10 µM, first compound 0.316 µM
  viability, T/C: 52.2%
Second compound 10 µM, first compound 1 µM
  viability, T/C: 45.6%
Second compound 10 µM, first compound 3.16 µM
  viability, T/C: 53.6%
Second compound 10 µM, first compound 10 µM
  viability, T/C: 53.1%

Reference: PubChem BioAssay AID1963834 (Molecular Pharmacology Branch, DTP, NCI, 2024)
